{
  "source": "patent US20230348456A1",
  "about": "“QUINAZOLINONES, PHARMACEUTICAL COMPOSITIONS CONTAINING THE SAME, AND METHODS OF USING THE SAME” (Repare Therapeutics Inc., priority 2022, published 2023)",
  "data": [
    {"molecular_target": "recombinant human Myt1 (Homo sapiens (Human), UniProt Q99640)", "sequence (Q99640 whole entry)": "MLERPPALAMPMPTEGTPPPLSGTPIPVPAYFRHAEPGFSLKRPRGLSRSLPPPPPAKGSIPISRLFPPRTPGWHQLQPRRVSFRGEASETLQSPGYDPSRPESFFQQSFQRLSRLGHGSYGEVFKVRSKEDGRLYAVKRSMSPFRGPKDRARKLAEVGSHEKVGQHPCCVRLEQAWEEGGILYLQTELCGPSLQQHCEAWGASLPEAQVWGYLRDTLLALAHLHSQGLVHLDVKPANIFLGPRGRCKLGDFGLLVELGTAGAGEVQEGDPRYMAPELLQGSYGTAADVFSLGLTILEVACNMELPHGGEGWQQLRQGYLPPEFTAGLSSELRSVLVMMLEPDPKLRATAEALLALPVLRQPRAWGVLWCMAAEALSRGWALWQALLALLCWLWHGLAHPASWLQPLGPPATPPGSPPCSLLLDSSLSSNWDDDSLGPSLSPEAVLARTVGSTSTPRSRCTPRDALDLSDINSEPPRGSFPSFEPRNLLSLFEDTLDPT", "assay": "Myt1 enzymatic assay (ADP-Glo kinase assay)", "assay_type": "biochemical", "conditions": "recombinant human Myt1 18 nM, ATP 10 μM", "summary_of_the_method": "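ADP-Glo luminescence measured ATP hydrolysis by recombinant full-length PKMYT1 (18 nM) after 60 min at 30 °C with 10 μM ATP. Compounds in 0.5% DMSO were added to the enzyme 15 min before ATP, at 22 °C, in HEPES/MgCl2/MnCl2 buffer. IC50 and percent maximal inhibition were derived.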", "units": {"IC50": "nM"}, "values": [
      {"smiles": "Nc1c(-c2cccc3[nH]ncc23)cc(-c2ncc(Cl)s2)c2nc[nH]c(=O)c12", "note": "[Compound 114]", "IC50": 28},
      {"smiles": "Nc1c(-c2cccc3[nH]ncc23)cc(-c2cccc(OCc3ncco3)c2)c2nc[nH]c(=O)c12", "note": "[Compound 95]", "IC50": 10},
      {"smiles": "Cc1ccc2[nH]ncc2c1-c1cc(Br)c2nc[nH]c(=O)c2c1N", "note": "[Compound 133]", "IC50": 26},
      {"smiles": "Cc1ccc(O)c(C)c1-c1cc(-c2ccn(C3CC3)n2)c2nc(-c3ccncc3)[nH]c(=O)c2c1N", "note": "[Compound 135]", "IC50": 3},
      {"smiles": "Nc1c(-c2cccc3[nH]ncc23)cc(-c2ncc(F)cn2)c2nc[nH]c(=O)c12", "note": "[Compound 120]", "IC50": 189},
      {"smiles": "Nc1c(-c2cccc3[nH]ncc23)cc(Br)c2nc(-c3ccc(N4CCC(C(=O)O)CC4)nc3)[nH]c(=O)c12", "note": "[Compound 32]", "IC50": 6},
      {"smiles": "Nc1c(-c2cccc3[nH]ncc23)ccc2nc(-c3ccncc3)[nH]c(=O)c12", "note": "[Compound 96]", "IC50": 67},
      {"smiles": "Cn1ccc(-c2cc(-c3cccc4[nH]ncc34)c(N)c3c(=O)[nH]cnc23)n1", "note": "[Compound 129]", "IC50": 23},
      {"smiles": "Cc1ccc(O)cc1-c1cc(-c2ncc(C(=O)NC(C)C)s2)c2c(c1N)C(=O)NC2", "note": "[Compound 153]", "IC50": 477},
      {"smiles": "Nc1c(-c2cccc3[nH]ncc23)cc(-n2cc(C(F)(F)F)cn2)c2nc(-c3ccncc3)[nH]c(=O)c12", "note": "[Compound 87]", "IC50": 100},
      {"smiles": "CNC(=O)c1cnc(-c2cc(-c3cc(O)ccc3C)c(N)c3c2CNC3=O)s1", "note": "[Compound 150]", "IC50": 163},
      {"smiles": "Cc1ccc(O)c(C)c1-c1cc(-c2cnn(C3CC3)c2)c2nc(-c3ccncc3)[nH]c(=O)c2c1N", "note": "(atropisomer, axis not shown) [Compound 27]", "IC50": 2},
      {"smiles": "N#Cc1csc(-c2cc(-c3cccc4[nH]ncc34)c(N)c3c(=O)[nH]cnc23)n1", "note": "[Compound 107]", "IC50": 3},
      {"smiles": "Nc1c(-c2cccc3[nH]ncc23)cc(-c2cnn(C3COC3)c2)c2nc(-c3ccncc3)[nH]c(=O)c12", "note": "[Compound 58]", "IC50": 1}
    ]}
  ]
}
